Experiments:
Assay in all cases: Cell viability drug screen, 12-point dose-response AUC
Assay type in all cases: cell-based, human
FU97 = system: FU97; set-up: Average Area Under the Viability Curve (AUC), AUC norm value: scale not given here; details: FU97 cells, 72 hours
Summary of the method: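 Trapezoidal AUC of a 12-point, DMSO-normalized dose-response curve. Luminescent viability was measured after 72 h of exposure at 37° C to half-log serial dilutions (0.5% DMSO control), dosed 24 h after plating FU97 cells at 5×10^3 per well.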

MKN28 = MKN28 cells, 72 hours
Summary of the method: (§1)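 AUC comes from 12-point half-log dose–response curves, normalized to DMSO-treated cells and integrated trapezoidally, repeats averaged. Luminescent viability read after 72 h compound exposure at 37 °C; cells plated 5×10^3 per well 24 h before dosing.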

SNU1 = SNU1 cells, 72 hours
Summary of the method: as §1

YCC11 = details: 72 hours; for Average Area Under the Viability Curve (AUC), AUC norm value: YCC11 cells (SEM subtype)
Summary of the method: as §1

AGS = details: 72 hours; for Average Area Under the Viability Curve (AUC), AUC norm value: AGS cells (non-SEM subtype)
Summary of the method: (§2)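 Dose-response AUC reflects 72 h drug exposure of gastric cancer cells in a 12-point, half-log format, with viability read by luminescence and normalized to DMSO (0.5%).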

NCC24 = NCC24 cells, 72 hours
Summary of the method: as §1

YCC2 = YCC2 cells, 72 hours
Summary of the method: as §1

SK4 = details: 72 hours; for Average Area Under the Viability Curve (AUC), AUC norm value: SK4 cells (SEM subtype)
Summary of the method: as §1

MKN74 = MKN74 cells, 72 hours
Summary of the method: as §2

Hs746T = details: 72 hours; for Average Area Under the Viability Curve (AUC), AUC norm value: Hs746T cells (SEM subtype)
Summary of the method: as §1

SNU719 = SNU719 cells, 72 hours
Summary of the method: as §2

SNU601 = SNU601 cells, 72 hours
Summary of the method: as §1

SNU216 = details: 72 hours; for Average Area Under the Viability Curve (AUC), AUC norm value: SNU216 cells (non-SEM subtype)
Summary of the method: as §2

SNU638 = SNU638 cells, 72 hours
Summary of the method: as §1

MKN1 = MKN1 cells, 72 hours
Summary of the method: as §1

NCC19 = NCC19 cells, 72 hours
Summary of the method: as §1

SNU668 = details: 72 hours; for Average Area Under the Viability Curve (AUC), AUC norm value: SNU668 cells (SEM subtype)
Summary of the method: as §1

SNU1750 = details: 72 hours; for Average Area Under the Viability Curve (AUC), AUC norm value: SNU1750 cells (SEM subtype)
Summary of the method: as §1

OCUM1 = OCUM1 cells, 72 hours
Summary of the method: as §1

YCC3 = YCC3 cells, 72 hours
Summary of the method: as §1

SNU16 = SNU16 cells, 72 hours
Summary of the method: as §1

NCC59 = NCC59 cells, 72 hours
Summary of the method: as §1

NCC20 = NCC20 cells, 72 hours
Summary of the method: as §1

SNU1967 = SNU1967 cells, 72 hours
Summary of the method: as §1

KATO3 = KATO3 cells, 72 hours
Summary of the method: as §1

NCI_N87 = NCI_N87 cells, 72 hours
Summary of the method: as §1

SNU620 = SNU620 cells, 72 hours
Summary of the method: as §1

SNU484 = details: 72 hours; for Average Area Under the Viability Curve (AUC), AUC norm value: SNU484 cells (SEM subtype)
Summary of the method: as §1

MKN45 = details: 72 hours; for Average Area Under the Viability Curve (AUC), AUC norm value: MKN45 cells (non-SEM subtype)
Summary of the method: as §2

Structure (SMILES): O=C(Nc1ccc([N+](=O)[O-])cc1Cl)c1cc(Cl)ccc1O [Niclosamide (Niclocide), Niclosamide]
- Average Area Under the Viability Curve (AUC), AUC norm value (FU97): −1.793
- Average Area Under the Viability Curve (AUC), AUC norm value (MKN28): −0.3809
- Average Area Under the Viability Curve (AUC), AUC norm value (SNU1): −1.673
- Average Area Under the Viability Curve (AUC), AUC norm value (YCC11): −0.8753
- Average Area Under the Viability Curve (AUC), AUC norm value (AGS): −1.094
- Average Area Under the Viability Curve (AUC), AUC norm value (NCC24): 0.68
- Average Area Under the Viability Curve (AUC), AUC norm value (YCC2): 0.6628
- Average Area Under the Viability Curve (AUC), AUC norm value (SK4): −1.038
- Average Area Under the Viability Curve (AUC), AUC norm value (MKN74): −1.62
- Average Area Under the Viability Curve (AUC), AUC norm value (Hs746T): −0.6858
- Average Area Under the Viability Curve (AUC), AUC norm value (SNU719): 2.503
- Average Area Under the Viability Curve (AUC), AUC norm value (SNU601): 4.911
- Average Area Under the Viability Curve (AUC), AUC norm value (SNU216): −0.5185
- Average Area Under the Viability Curve (AUC), AUC norm value (SNU638): −1.105
- Average Area Under the Viability Curve (AUC), AUC norm value (MKN1): 0.3991
- Average Area Under the Viability Curve (AUC), AUC norm value (NCC19): 2.917
- Average Area Under the Viability Curve (AUC), AUC norm value (SNU668): −0.9084
- Average Area Under the Viability Curve (AUC), AUC norm value (SNU1750): −0.8987
- Average Area Under the Viability Curve (AUC), AUC norm value (OCUM1): 0
- Average Area Under the Viability Curve (AUC), AUC norm value (YCC3): 1.8253
- Average Area Under the Viability Curve (AUC), AUC norm value (SNU16): −3.062
- Average Area Under the Viability Curve (AUC), AUC norm value (NCC59): 1.141
- Average Area Under the Viability Curve (AUC), AUC norm value (NCC20): 0.2177
- Average Area Under the Viability Curve (AUC), AUC norm value (SNU1967): 0.1419
- Average Area Under the Viability Curve (AUC), AUC norm value (KATO3): 1.591
- Average Area Under the Viability Curve (AUC), AUC norm value (NCI_N87): 2.802
- Average Area Under the Viability Curve (AUC), AUC norm value (SNU620): 0.8518
- Average Area Under the Viability Curve (AUC), AUC norm value (SNU484): −1.164
- Average Area Under the Viability Curve (AUC), AUC norm value (MKN45): 1.159

Structure (SMILES): COC(=O)Nc1nc2ccc(C(=O)c3cccs3)cc2[nH]1 [Nocodazole]
- Average Area Under the Viability Curve (AUC), AUC norm value (FU97): 0.3797
- Average Area Under the Viability Curve (AUC), AUC norm value (MKN28): −0.1478
- Average Area Under the Viability Curve (AUC), AUC norm value (SNU1): −0.7242
- Average Area Under the Viability Curve (AUC), AUC norm value (YCC11): −0.8279
- Average Area Under the Viability Curve (AUC), AUC norm value (AGS): −1.573
- Average Area Under the Viability Curve (AUC), AUC norm value (NCC24): 0
- Average Area Under the Viability Curve (AUC), AUC norm value (YCC2): 1.3363
- Average Area Under the Viability Curve (AUC), AUC norm value (SK4): −0.374
- Average Area Under the Viability Curve (AUC), AUC norm value (MKN74): 0.7081
- Average Area Under the Viability Curve (AUC), AUC norm value (Hs746T): 1.28
- Average Area Under the Viability Curve (AUC), AUC norm value (SNU719): 4.976
- Average Area Under the Viability Curve (AUC), AUC norm value (SNU601): 1.743
- Average Area Under the Viability Curve (AUC), AUC norm value (SNU216): 2.032
- Average Area Under the Viability Curve (AUC), AUC norm value (SNU638): −0.1875
- Average Area Under the Viability Curve (AUC), AUC norm value (MKN1): −0.6519
- Average Area Under the Viability Curve (AUC), AUC norm value (NCC19): 0.8717
- Average Area Under the Viability Curve (AUC), AUC norm value (SNU668): −0.1188
- Average Area Under the Viability Curve (AUC), AUC norm value (SNU1750): 0.7502
- Average Area Under the Viability Curve (AUC), AUC norm value (OCUM1): 0.7248
- Average Area Under the Viability Curve (AUC), AUC norm value (YCC3): 3.066
- Average Area Under the Viability Curve (AUC), AUC norm value (SNU16): −1.507
- Average Area Under the Viability Curve (AUC), AUC norm value (NCC59): 3.0345
- Average Area Under the Viability Curve (AUC), AUC norm value (NCC20): −1.695
- Average Area Under the Viability Curve (AUC), AUC norm value (SNU1967): −0.07292
- Average Area Under the Viability Curve (AUC), AUC norm value (KATO3): 3.188
- Average Area Under the Viability Curve (AUC), AUC norm value (NCI_N87): −0.7843
- Average Area Under the Viability Curve (AUC), AUC norm value (SNU620): −0.735
- Average Area Under the Viability Curve (AUC), AUC norm value (SNU484): −0.8136
- Average Area Under the Viability Curve (AUC), AUC norm value (MKN45): 2.005

Structure (SMILES): CCCOc1ccc2nc(NC(=O)OC)[nH]c2c1 [Oxybendazole]
- area under the viability curve (AUC), normalized (FU97; 12-point dose-response): −0.3548
- area under the viability curve (AUC), normalized (MKN28; 12-point dose-response): −0.1307
- area under the viability curve (AUC), normalized (SNU1; 12-point dose-response): −1.007
- area under the viability curve (AUC), normalized (YCC11; YCC11 cells, 12-point dose-response): −0.2902
- area under the viability curve (AUC), normalized (AGS; AGS cells, 12-point dose-response): −1.064
- area under the viability curve (AUC), normalized (NCC24; 12-point dose-response): −1.131
- area under the viability curve (AUC), normalized (YCC2; 12-point dose-response): 0.7894
- area under the viability curve (AUC), normalized (SK4; SK4 cells, 12-point dose-response): −0.1414
- area under the viability curve (AUC), normalized (MKN74; 12-point dose-response): 0.4498
- area under the viability curve (AUC), normalized (Hs746T; Hs746T cells, 12-point dose-response): 1.204
- area under the viability curve (AUC), normalized (SNU719; 12-point dose-response): 3.17
- area under the viability curve (AUC), normalized (SNU601; 12-point dose-response): 1.095
- area under the viability curve (AUC), normalized (SNU216; SNU216 cells, 12-point dose-response): 1.744
- area under the viability curve (AUC), normalized (SNU638; 12-point dose-response): −0.2808
- area under the viability curve (AUC), normalized (MKN1; 12-point dose-response): −0.5859
- area under the viability curve (AUC), normalized (NCC19; 12-point dose-response): 1.219
- area under the viability curve (AUC), normalized (SNU668; SNU668 cells, 12-point dose-response): −0.3638
- area under the viability curve (AUC), normalized (SNU1750; SNU1750 cells, 12-point dose-response): 0.4952
- area under the viability curve (AUC), normalized (OCUM1; 12-point dose-response): 1.059
- area under the viability curve (AUC), normalized (YCC3; 12-point dose-response): 2.897
- area under the viability curve (AUC), normalized (SNU16; 12-point dose-response): 2.326
- area under the viability curve (AUC), normalized (NCC59; 12-point dose-response): 2.518
- area under the viability curve (AUC), normalized (NCC20; 12-point dose-response): −0.7466
- area under the viability curve (AUC), normalized (SNU1967; 12-point dose-response): 0
- area under the viability curve (AUC), normalized (KATO3; 12-point dose-response): 3.472
- area under the viability curve (AUC), normalized (NCI_N87; 12-point dose-response): −0.1928
- area under the viability curve (AUC), normalized (SNU620; 12-point dose-response): −1.528
- area under the viability curve (AUC), normalized (SNU484; SNU484 cells, 12-point dose-response): −0.00299
- area under the viability curve (AUC), normalized (MKN45; MKN45 cells, 12-point dose-response): 2.187

— US20250129430A1, “HIGH ATP-AFFINITY PROTEIN AS THERAPEUTIC TARGET FOR INTRACTABLE CANCER MOLECULAR SUBTYPES AND INHIBITOR THEREOF” (VeraVerse Co., Ltd., priority 2021, published 2025)
